# Measured values from patent US10507199B2, “Molecules in the tryptophan-5-hydroxytryptophan-serotonin-NAS-melatonin/6-hydroxymelatonin sulfate-melatonin receptor 1A pathway in neurological diseases” (priority 2017, dated 2019).
# Entries after “also recorded” stand apart in the source; their conditions may differ.
# Tests used:
# [1] = tested on: mSOD1 G93A ALS transgenic mice; assay: mSOD1 G93A ALS mice: disease onset (rotarod), survival, body weight; format: in vivo, mouse
# Method: Motor strength and coordination were evaluated using a rotarod. Mice were evaluated at both 15 and 5 rpm rotarod speeds. […] Mortality was defined as the age at death or when the mouse was unable to right itself within 30 second. Body weight was monitored weekly.
# To determine whether NAS could be used therapeutically in these subjects, NAS was administered at 15 mg/kg/day by daily IP injection initiated at 6 weeks of age. […] ALS disease onset was defined as failure to pass the rotarod task at 15 rpm. […] Thus NAS administration also prevents motor neuron loss in mSOD1 G93A ALS mice.
# [2] = tested on: motor neurons in lumbar spinal cord of mSOD1 G93A ALS mice; assay: Nissl staining of motor neurons in lumbar spinal cord of mSOD1 G93A ALS mice; format: in vivo, mouse; settings: NAS treatment vs saline vehicle
# Method: Nissl staining was performed in mSOD1G93A ALS mice and wild type littermates. Serial lumbar spinal cords were sectioned at 18 μm. Continuous 10 sections per mouse were subjected to Nissl staining. Stained motor neurons were counted in the ventral horns of all sections.
# [3] = tested on: WT mice; assay: Body weight of WT mice under NAS; format: in vivo, mouse; settings: NAS 7.5, 15, 30, 45 mg/kg, daily IP injection started at 6 weeks
# [4] = tested on: cerebral ischemia; settings: NAS administration; Zhou et al. 2014; cited from earlier work
# [5] = tested on: neonatal H-I brain injury (P8 mice, unilateral carotid ligation and 60 min hypoxia); assay: Neonatal hypoxia-ischemia mouse model, H&E staining and brain area loss; format: in vivo
# Method: For histological analyses, after various time points after H-I brain injury, mice were anesthetized with IP injection of 100 mg/kg pentobarbital and then perfused through the left ventricle with PBS. […] The sections corresponding to image 205 up to caudal hippocampus region of Allen mouse brain atlas were directly mounted on SuperFrost Plus® microscope slides. H&E staining was performed on the brain at 7 days post H-I injury comprising of right unilateral carotid ligation and 60 min hypoxia. Brain sections of 50 μm thickness were stained with hematoxylin and eosin (all reagents from Fisher Scientific, Santa Clara, Calif.), dehydrated in graded ethanol solutions, cleared with xylene, examined under light microscope, and subsequently scanned with Epsom V500 photo scanner for measurements. The cross-sectional unaffected and affected areas of the hippocampus, and cortex were measured with NIH imageJ software. A total of 5 coronal slices through the same hippocampus regions were inspected for tissue loss for each animal. The total cross-sectional area in each brain region was calculated in all sections assessed, and the percentage of area loss in the lesioned hemisphere versus the unlesioned hemisphere was determined for each animal. The person performing the measurements was blinded to the study groups. Images of H & E stained sections were quantified using ImageJ software package to measure hemispheric area contralateral and ipsilateral to the H-I brain injury in order to calculate the amount of tissue lost on the ipsilateral hemisphere. The loss of brain tissue ipsilateral to the H-I injury was calculated as a percentage of the non-injured contralateral hemisphere.
# [6] = tested on: neonatal H-I brain injury (P8 mice, unilateral carotid ligation and 45 min hypoxia); assay: Neonatal hypoxia-ischemia mouse model, Fluoro-Jade B staining and histological score; format: in vivo; settings: melatonin 5 mg/kg IP once daily, 48 hr after H-I
# Method: FJB staining was performed at 48 hr post H-I injury of UCL followed by 45 min hypoxia. Fluoro-Jade is an anionic fluorochrome capable of selectively staining degenerating neurons in brain slices. Coronal sections of 16 μm thickness were stained with FJB using the method adapted from Schmued and colleagues.^41 Briefly, tissues mounted on glass slides were sequentially placed in 100% ethanol for 3 min, 70% ethanol for 1 min and deionized water for 1 min. Sections were oxidized for 15 min using 0.06% KMnO4 solution followed by 3 brief rinses in PBS. Slides were then immersed in a 0.001% solution of Fluoro-Jade (Histochem, Jefferson, A R) in 0.1% acetic acid for 30 min, rinsed with PBS, dried for 20 min at 45° C., cleared with xylene and cover slips applied using DPX medium. FJB stained sections were examined under a microscope independently by 2 investigators blinded to the treatment group. […] The total scores for the hippocampus and cortex were compared in melatonin treated and vehicle group.
# [7] = tested on: melatonin receptor 1A (MT1); settings: melatonin 10 mg/kg, 30 min prior to H-I; 48 hr post H-I
# Method: A model of hypoxia-ischemia in newborn mice pups based on modification of Rice-Vannucci model of unilateral carotid ligation (UCL) followed by hypoxia was used.^40 C57/BL6 wild type and MT1 knockout (KO) mice litters of postnatal day 8 (P8) pups were anesthetized with 2.5% isofluorane and balanced room air, and the right common carotid artery permanently ligated. Time to anesthesia and completion of surgery was timed with a stopwatch to limit the procedure to less than 3 min. Following recovery from anesthesia after 15 min, the pups were placed in hypoxia chamber through which 8% oxygen was delivered at 6 liters per min for 60 min for histology, western blot and immunostaining and 45 mins for FJB staining. Normothermia was maintained by placing the pups in an incubator at 34° C. throughout the experiment except during hypoxia when the temperature was increased to 36° C. to counteract the cooling effect of the 8% 02 gas flow. […]
# The lysate was cleared by centrifugation at 19,720×g for 10 min at 4° C., and the supernatant was analyzed by Western blotting.^20 Following right unilateral carotid ligation (UCL), C57/BL6 P8 pups were subjected to 60 min of hypoxia. […] The resulting supernatants were analyzed by Western blotting.^20, 44 Protein concentration was measured by the Bradford method.
# [8] = tested on: neonatal hypoxic-ischemic brain injury; settings: melatonin 15 mg/kg; Carloni et al.; cited from earlier work
# [9] = tested on: humans; settings: cited from earlier work
# [10] = NAS 15 mg/kg/day, daily IP injection initiated at 6 weeks of age
# [11] = melatonin 10 mg/kg IP once daily, first dose 30 min before H-I, 60 min hypoxia, 7 days after H-I, H&E
Compound,"loss of body weight during pathogenesis in mSOD1 G93A mice ([1]; NAS 15 mg/kg, daily IP injection started at 6 weeks)","ALS disease onset (failure to pass the rotarod task at 15 rpm) [1, 10]","survival / mortality [1, 10]",loss of motor neurons in lumbar spinal cord (Nissl staining) [2],body weight in WT mice [3],lesion size [4],neurological score [4],neuronal cell death [4],"hippocampal tissue (area) loss in the brain ipsilateral to carotid ligation [5, 11]","percentage brain tissue loss in the brain hemisphere ipsilateral to carotid ligation compared to the uninjured contralateral hemisphere [5, 11]","reduction in hippocampus damage ([5]; melatonin 10 mg/kg, hippocampus)","reduction in brain damage ([5]; melatonin 10 mg/kg, whole hemisphere)",score of FJB positive cells in the cortex [6],score of FJB positive cells in the hippocampus [6],MT1 expression in brains of H-I pups (western blot) [7],reduction in brain damage [8],side effects in humans ([9]; humans),"safety profile in human newborns ([9]; oxidative stress conditions in human newborns: asphyxia, sepsis, respiratory distress syndrome)"
"CC(=O)NCCc1c[nH]c2ccc(O)cc12 [NAS, N-acetylserotonin]",prevents the loss of body weight,delayed disease onset; also recorded: delays ALS disease onset,extending survival,ameliorate the loss of motor neurons,no effect on body weight,diminish lesion size,improve neurological score,attenuate neuronal cell death,–,–,–,–,–,–,–,–,–,–
"COc1ccc2[nH]cc(CCNC(C)=O)c2c1 [melatonin, N-acetyl-5-methoxytryptamine]",–,–,–,–,–,–,–,–,28.6%,9.7%,57%,60%,significantly higher score (representing worse damage) in vehicle treated pups compared with melatonin treated pups,significantly higher score (representing worse damage) in vehicle treated pups compared with melatonin treated pups,significantly ameliorated MT1 loss,64%,minimal,good safety profile with no significant complications
